Patent US7858635B2 (priority 2005, dated 2010)
Where two headings read alike, the source gives them in different places.

Tests used:
[1] = biological target: T1, M1 muscarinic receptor (Homo sapiens, UniProt P11229); assay: Functional mobilization of intracellular calcium (FLIPR, Fluo-3), M1-CHO cells; assay type: cell-based; conditions: for Emax: read-out: M1 Efficacy
T1 construct: expressed in transfected cells; host or cells: CHO cells (M1-CHO, under zeocin and G418 selection)
T1 sequence (P11229 1-460): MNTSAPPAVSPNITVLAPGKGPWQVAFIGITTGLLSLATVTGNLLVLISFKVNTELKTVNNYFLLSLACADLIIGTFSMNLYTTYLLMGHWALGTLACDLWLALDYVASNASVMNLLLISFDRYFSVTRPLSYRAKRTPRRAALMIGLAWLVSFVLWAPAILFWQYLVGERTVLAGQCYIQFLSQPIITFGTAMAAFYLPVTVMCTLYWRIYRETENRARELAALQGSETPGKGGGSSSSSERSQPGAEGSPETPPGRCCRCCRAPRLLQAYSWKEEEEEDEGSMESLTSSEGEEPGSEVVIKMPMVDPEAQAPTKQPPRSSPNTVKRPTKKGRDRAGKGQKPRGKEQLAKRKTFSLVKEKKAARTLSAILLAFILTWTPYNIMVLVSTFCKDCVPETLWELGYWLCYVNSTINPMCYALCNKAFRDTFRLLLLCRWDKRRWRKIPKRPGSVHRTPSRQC
Experimental: (§1) CHO cells expressing muscarinic receptors (M1 to M5) are grown as monolayers in tissue culture flasks at 37° C. in a humidified atmosphere containing 5% CO2 and passaged every 3-5 days. The growth media is Dulbecco's modified eagles medium (DMEM, Gibco Cat#12430-054), containing 25 mM Hepes and supplemented with Fetal Bovine Serum (Hyclone, cat# SH30071.03), 0.1 mM of MEM non-essential amino acids (GIBCO, Cat# 11140-050), 1 mM MEM Sodium Pyruvate (GIBCO Cat# 11360-070) and 100 units/ml of Penicillin G and 100 μg/ml of Streptomycin (GIBCO Cat# 15140-122). The recombinant muscarinic receptor cell lines are grown under antibiotic pressure with media containing 25 μm/ml zeocin and 500 μg/ml G418 (M1-CHO), 4 μg/ml puromycin, 50 μg/ml zeocin and 2.5 μm/ml blasticidin (M2 and M4-CHO) or 50 μg/ml zeocin and 4 μg/ml puromycin (M3 and M5-CHO).
(§2) Cells are harvested at 80-90% confluence using Versene (GIBCO Cat# 15040-066), collected by centrifugation and seeded 18-24 hrs prior to running the calcium assay at a density of 5,000-10,000 cells/well in […], clear-bottomed 384-well plates (BD Biocoat, poly-D-lysine, Cat#356663). The day of the experiment, the cells are washed with a plate washer (Bioteck Instruments, ELX 405) using bath1 buffer (140-mM NaCl, 4.5-mM KCL, 2-mM CaCl2, 1-mM MgCl2, 10-mM Hepes-Na, 10-mM Glucose, pH 7.4, with NaOH) containing 1 mM Probenecid. Next, the calcium dye Fluo-3 (25 μl/well of Fluo-3 μM at 4 μM, Molecular Probes F-1241, in Bath 1 buffer containing 1 mM Probenecid) is added to the 25 μl of Bath 1 remaining in each well after the plate wash and the dye is loaded at 37° C. in the tissue culture incubator for 60-90 min. The fluorescent dye is removed using the plate washer with Bath 1 containing 1 mM Probenecid, leaving 25 μl/well of this solution after the wash. Alternatively, cells can be loaded with the calcium indicator from Molecular Devices (Calcium 3 Assay Reagents, Cat # R7181) adding 5 μl of a 5× solution dye in Bath 1 containing 1 mM Probenecid (10 ml per dye flask cat# R7182 to generate a solution 20×) to 20 μl of the same buffer. After loading for 60 min, the experiment can be run without having to remove the dye.
(§3) Compounds are prepared at a 2× fold concentration in a 96-well plate (round bottom, Costar Corning cat# 3656), by reconstituting the pre-spotted compounds in bath 1 containing 1 mM probenecid. The final concentration DMSO is 0.5%, and the amount of DMSO is normalized across the assay plate. To determine an agonist action of the compounds on muscarinic receptors, the reconstituted compounds are added (25 μl compound/well) to the cell assay plate (containing 25 μl/well) using the multi-channel robotic system of the FLIPR 3 Instrument (Molecular Devices, Sunnyvale, Calif.). To determine a functional inhibitory action of the compounds on muscarinic receptors, the reconstituted compounds are added (25 μl compound/well) to the assay plate and pre-incubated for 15 min prior to adding 25 μl of Carbachol at 3× the EC80 for each muscarinic subtype. Alternatively, the compounds can be co-applied simultaneously with the agonist. In both assay modes, the fluorescence is recorded for 60 sec (excitation wavelength is […] and emission wavelength 540 nm) using the FLIPR 3 instrument.
(§4) The potency, efficacy and selectivity of the muscarinic compounds were evaluated by screening the compound activity across the whole family (M1 to M5 cells). Compounds were also screened for activity on other proteins such as other GPCRs and ion channels to determine selectivity on M4 receptors.

[2] = biological target: T2, M4 muscarinic receptor (Homo sapiens, UniProt P08173); assay: Functional mobilization of intracellular calcium (FLIPR, Fluo-3), M4-CHO cells; assay type: cell-based; conditions: for Emax: read-out: M4 Efficacy
T2 construct: expressed in transfected cells; host or cells: CHO cells (M4-CHO, under puromycin, zeocin and blasticidin selection)
T2 sequence (P08173 1-479): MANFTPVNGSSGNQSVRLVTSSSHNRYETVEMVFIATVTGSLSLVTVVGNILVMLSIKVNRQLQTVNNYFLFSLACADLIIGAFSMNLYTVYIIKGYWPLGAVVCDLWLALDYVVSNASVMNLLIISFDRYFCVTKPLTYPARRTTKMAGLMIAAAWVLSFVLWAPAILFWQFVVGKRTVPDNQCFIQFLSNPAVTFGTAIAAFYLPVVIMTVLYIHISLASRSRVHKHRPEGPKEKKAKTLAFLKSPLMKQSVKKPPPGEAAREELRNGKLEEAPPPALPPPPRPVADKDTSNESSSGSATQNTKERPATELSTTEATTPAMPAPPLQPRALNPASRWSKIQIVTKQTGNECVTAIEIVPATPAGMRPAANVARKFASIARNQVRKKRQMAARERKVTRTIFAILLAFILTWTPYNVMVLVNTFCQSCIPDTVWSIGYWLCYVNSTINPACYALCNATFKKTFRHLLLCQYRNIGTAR
Experimental: as §1, §2, §3, §4

[3] = compound nos. 1-454, 100% efficacy is the maximum response obtained with the Carbachol control
[4] = compound nos. 1-454, M1-CHO cells, calcium mobilization
[5] = compound nos. 1-454, M4-CHO cells, calcium mobilization

Compound | Emax [1, 3] [%] | M1 Activity [1, 4] | Emax [2, 3] [%] | M4 Activity [2, 5] | M1 Activity ([1]; compound nos. 1-454) | M4 Activity ([2]; compound nos. 1-454) | Emax [1] [%] | Emax [2] [%]
CN(C)C(=O)N1CC2(CCN(C3CCN(C(=O)O[C@H]4CCOC4)CC3)CC2)c2cc(F)ccc21 [compound 120] | < 65 | ++ (activity was measured to be between 0.7 μM and 3.0 μM) | < 55 | + (activity was measured to be greater than or equal to 4.0 μM) | – | – | – | –
Cc1cc(C(=O)N2CC3(CCN(C4CC5CCC(C4)N5C(=O)OC(C)C)CC3)c3cc(F)ccc32)nn1C (stereo not drawn) [compound 24] | < 65 | ++ (activity was measured to be between 0.7 μM and 3.0 μM) | < 55 | + (activity was measured to be greater than or equal to 4.0 μM) | – | – | – | –
CC(=O)N[C@H]1CC2(CCN(C3CCOCC3)CC2)c2ccccc21 [compound 206] | 65 to 85 | +++ (activity was measured to be less than or equal to 0.7 μM) | < 55 | + (activity was measured to be greater than or equal to 4.0 μM) | – | – | – | –
CCOC(=O)N1C2CCC1CC(N1CCC3(CC1)CN(C(C)=O)c1ccc(Cl)cc13)C2 (stereo not drawn) [compound 417] | < 65 | – | < 55 | – | ++ (activity was measured to be between 0.7 μM and 3.0 μM) | + (activity was measured to be greater than or equal to 4.0 μM) | – | –
CCOC(=O)N1C2CCC1CC(N1CCC3(CC1)CNc1ccc(C)cc13)C2 (stereo not drawn) [compound 109] | 65 to 85 | +++ (activity was measured to be less than or equal to 0.7 μM) | < 55 | ++ (activity was measured to be between 0.1 μM and 4.0 μM) | – | – | – | –
CCOC(=O)N1C2CCC1CC(N1CCC3(CC1)CN(S(=O)(=O)c1ccc(F)cc1)c1ccc(F)cc13)C2 (stereo not drawn) [compound 40] | 65 to 85 | +++ (activity was measured to be less than or equal to 0.7 μM) | > 70 | ++ (activity was measured to be between 0.1 μM and 4.0 μM) | – | – | – | –
Fc1ccc2c(c1)C1(CCN(CC3CC4C=CC3C4)CC1)CN2 (stereo not drawn) [compound 183] | 65 to 85 | ++ (activity was measured to be between 0.7 μM and 3.0 μM) | 55 to 70 | + (activity was measured to be greater than or equal to 4.0 μM) | – | – | – | –
COCCOC(=O)N1CCC(N2CCC3(CC2)CN(C(=O)N(C)C)c2ccc(F)cc23)CC1 [compound 265] | < 65 | ++ (activity was measured to be between 0.7 μM and 3.0 μM) | < 55 | ++ (activity was measured to be between 0.1 μM and 4.0 μM) | – | – | – | –
CCOC(=O)C1CCC(N2CCC3(CC2)CN(C(C)=O)c2ccc(F)cc23)CC1 (stereo not drawn) [compound 228] | < 65 | + (activity was measured to be greater than or equal to 3.0 μM) | < 55 | + (activity was measured to be greater than or equal to 4.0 μM) | – | – | – | –
CCOC(=O)N1C2CCC1CC(N1CCC3(CC1)CN(C(=O)Oc1ccc(F)cc1)c1ccc(F)cc13)C2 (stereo not drawn) [compound 298] | – | + (activity was measured to be greater than or equal to 3.0 μM) | – | + (activity was measured to be greater than or equal to 4.0 μM) | – | – | < 65 | 55 to 70
Clc1ccc2c(c1)C1(CCN(C3CC4CCC3C4)CC1)CN2 (stereo not drawn) [compound 224] | 65 to 85 | + (activity was measured to be greater than or equal to 3.0 μM) | < 55 | + (activity was measured to be greater than or equal to 4.0 μM) | – | – | – | –
CCOC(=O)N1CCC(N2CCC3(CC2)CN(C(C)=O)c2ccc(-c4ccncc4)cc23)CC1 [compound 105] | < 65 | ++ (activity was measured to be between 0.7 μM and 3.0 μM) | < 55 | + (activity was measured to be greater than or equal to 4.0 μM) | – | – | – | –
Cc1ccc2c(c1)C1(CCN(C3CC4CCC3C4)CC1)CN2C(=O)c1ccno1 (stereo not drawn) [compound 292] | 65 to 85 | ++ (activity was measured to be between 0.7 μM and 3.0 μM) | 55 to 70 | + (activity was measured to be greater than or equal to 4.0 μM) | – | – | – | –
Clc1ccc2c(c1)C1(CCN(C3CCC4CCC3C4)CC1)CN2 (stereo not drawn) [compound 348] | > 85 | +++ (activity was measured to be less than or equal to 0.7 μM) | > 70 | ++ (activity was measured to be between 0.1 μM and 4.0 μM) | – | – | – | –
Fc1ccc2c(c1)C1(CCN(C3CC4CCC3C4)CC1)CN2 (stereo not drawn) [compound 416] | < 65 | – | < 55 | – | + (activity was measured to be greater than or equal to 3.0 μM) | + (activity was measured to be greater than or equal to 4.0 μM) | – | –
CCOC(=O)N1CCC(N2CCC3(CC2)CN(C(=O)O[C@H]2CCOC2)c2ccc(F)cc23)CC1 [compound 428] | < 65 | – | < 55 | – | ++ (activity was measured to be between 0.7 μM and 3.0 μM) | + (activity was measured to be greater than or equal to 4.0 μM) | – | –
CCOC(=O)N1C2CCC1CC(N1CCC3(CC1)CN(C(=O)OC1CCC1)c1ccc(F)cc13)C2 (stereo not drawn) [compound 409] | > 85 | – | > 70 | – | +++ (activity was measured to be less than or equal to 0.7 μM) | +++ (activity was measured to be less than or equal to 0.1 μM) | – | –
CN(C)C(=O)N1CC2(CCN(C3CCN(c4ccccn4)CC3)CC2)c2cc(F)ccc21 [compound 452] | 65 to 85 | – | 55 to 70 | – | ++ (activity was measured to be between 0.7 μM and 3.0 μM) | +++ (activity was measured to be less than or equal to 0.1 μM) | – | –
